Read-outs that look alike come from different tables or passages of the source.
Legend:
Experiment in all cases: MIC, broth microdilution
S. agalactiae GC 4564 = conditions: Streptococcus agalactiae
S. pneumoniae* GC 4465 = conditions: Streptococcus pneumoniae
E. faecalis GC 2267 = conditions: Enterococcus faecalis
E. coli GC 2203 = conditions: Escherichia coli
S. aureus GC 6335 = conditions: Staphylococcus aureus
E. coli GC 2236 = conditions: Escherichia coli
E. coli GC 2234 = conditions: Escherichia coli
E. coli GC 2272 = conditions: Escherichia coli
P. aeruginosa GC 2214 = conditions: Pseudomonas aeruginosa
S. pyogenes GC 4563 = conditions: Streptococcus pyogenes
S. pneumoniae+ GC 4465 = conditions: Streptococcus pneumoniae
E. coli GC 2232 = conditions: Escherichia coli
S. epidermidis GC 4935 = conditions: Staphylococcus epidermidis
E. coli GC 4559 = conditions: Escherichia coli
E. faecalis GC 4555 = conditions: Enterococcus faecalis
Experimental: Antimicrobial susceptibility testing. The in vitro activities of the antibiotics are determined by the broth microdilution method as recommended by the National Committee for Clinical Laboratory Standards (NCCLS) (1). Mueller-Hinton II broth (MHBII)(BBL Cockeysville, Md.) is the medium employed in the testing procedures. Microtiter plates containing serial dilutions of each antimicrobial agent are inoculated with each organism to yield the appropriate density (10^5 CFU/ml) in a 100 μl final volume. The plates are incubated for 18-22 hours at 35° C. in ambient air.
Representative compounds were first incubated in mouse serum for an hour prior to the in vitro testing against a panel of selected gram-positive and gram-negative bacteria strains. All compounds were also pre-incubated in water for an hour prior to testing as control. Representative compounds of Formula I were incubated in human serum prior to MIC determination.

E. coli GC 3226 = conditions: Escherichia coli
E. faecalis GC 2265 = conditions: Enterococcus faecalis
S. aureus GC 1131 = conditions: Staphylococcus aureus
E. coli GC 2271 = conditions: Escherichia coli
[1] = read-out: MINIMAL INHIBITORY CONCENTRATION MIC, Human Serum
[2] = read-out: MINIMAL INHIBITORY CONCENTRATION MIC, Mouse Serum
[3] = read-out: MINIMAL INHIBITORY CONCENTRATION MIC, Water

Measured: MIC

CC(C)COC(=O)N(CC(=O)Nc1cc(N(C)C)c2c(c1O)C(=O)C1=C(O)[C@]3(O)C(=O)C(C(N)=O)=C(O)[C@@H](N(C)C)[C@@H]3C[C@@H]1C2)C(C)(C)C [Example 59, isobutyl 2-{[(5aR,6aS,7S,10aS)-9-(aminocarbonyl)-4,7-bis(dimethylamino)-1,8,10a,11-tetrahydroxy-10,12-dioxo-5,5a,6,6a,7,10,10a,12-octahydrotetracen-2-yl]amino}-2-oxoethyl(tert-butyl)carbamate]
64 µg/mL: E. coli GC 2272; GC2272, read-out: MINIMAL INHIBITORY CONCENTRATION MIC, Mouse Serum | E. coli GC 4559; GC4559, read-out: MINIMAL INHIBITORY CONCENTRATION MIC, Mouse Serum
> 64 µg/mL: E. coli GC 2203; GC2203, read-out: MINIMAL INHIBITORY CONCENTRATION MIC, Human Serum | E. coli GC 2203; GC2203, read-out: MINIMAL INHIBITORY CONCENTRATION MIC, Mouse Serum | E. coli GC 2203; GC2203, read-out: MINIMAL INHIBITORY CONCENTRATION MIC, Water | E. coli GC 2236; GC2236, read-out: MINIMAL INHIBITORY CONCENTRATION MIC, Human Serum | E. coli GC 2236; GC2236, read-out: MINIMAL INHIBITORY CONCENTRATION MIC, Mouse Serum | E. coli GC 2236; GC2236, read-out: MINIMAL INHIBITORY CONCENTRATION MIC, Water | E. coli GC 2234; GC2234, read-out: MINIMAL INHIBITORY CONCENTRATION MIC, Human Serum | E. coli GC 2234; GC2234, read-out: MINIMAL INHIBITORY CONCENTRATION MIC, Mouse Serum | E. coli GC 2234; GC2234, read-out: MINIMAL INHIBITORY CONCENTRATION MIC, Water | E. coli GC 2272; GC2272, read-out: MINIMAL INHIBITORY CONCENTRATION MIC, Human Serum | E. coli GC 2272; GC2272, read-out: MINIMAL INHIBITORY CONCENTRATION MIC, Water | P. aeruginosa GC 2214; GC2214, read-out: MINIMAL INHIBITORY CONCENTRATION MIC, Human Serum | P. aeruginosa GC 2214; GC2214, read-out: MINIMAL INHIBITORY CONCENTRATION MIC, Mouse Serum | P. aeruginosa GC 2214; GC2214, read-out: MINIMAL INHIBITORY CONCENTRATION MIC, Water | E. coli GC 2232; GC2232, read-out: MINIMAL INHIBITORY CONCENTRATION MIC, Human Serum | E. coli GC 2232; GC2232, read-out: MINIMAL INHIBITORY CONCENTRATION MIC, Mouse Serum | E. coli GC 2232; GC2232, read-out: MINIMAL INHIBITORY CONCENTRATION MIC, Water | E. coli GC 4559; GC4559, read-out: MINIMAL INHIBITORY CONCENTRATION MIC, Human Serum | E. coli GC 4559; GC4559, read-out: MINIMAL INHIBITORY CONCENTRATION MIC, Water | E. coli GC 3226; GC3226, read-out: MINIMAL INHIBITORY CONCENTRATION MIC, Human Serum | E. coli GC 3226; GC3226, read-out: MINIMAL INHIBITORY CONCENTRATION MIC, Mouse Serum | E. coli GC 3226; GC3226, read-out: MINIMAL INHIBITORY CONCENTRATION MIC, Water | E. coli GC 2271; GC2271, read-out: MINIMAL INHIBITORY CONCENTRATION MIC, Human Serum | E. coli GC 2271; GC2271, read-out: MINIMAL INHIBITORY CONCENTRATION MIC, Mouse Serum | E. coli GC 2271; GC2271, read-out: MINIMAL INHIBITORY CONCENTRATION MIC, Water
4 µg/mL: S. pneumoniae* GC 4465; [1] | S. pneumoniae* GC 4465; [2] | S. pneumoniae* GC 4465; [3] | E. faecalis GC 2267; GC2267, read-out: MINIMAL INHIBITORY CONCENTRATION MIC, Human Serum | E. faecalis GC 2267; GC2267, read-out: MINIMAL INHIBITORY CONCENTRATION MIC, Mouse Serum | E. faecalis GC 2267; GC2267, read-out: MINIMAL INHIBITORY CONCENTRATION MIC, Water | S. aureus GC 6335; GC6335, read-out: MINIMAL INHIBITORY CONCENTRATION MIC, Human Serum | S. aureus GC 6335; GC6335, read-out: MINIMAL INHIBITORY CONCENTRATION MIC, Mouse Serum | S. aureus GC 6335; GC6335, read-out: MINIMAL INHIBITORY CONCENTRATION MIC, Water | S. pyogenes GC 4563; GC4563, read-out: MINIMAL INHIBITORY CONCENTRATION MIC, Human Serum | S. pyogenes GC 4563; GC4563, read-out: MINIMAL INHIBITORY CONCENTRATION MIC, Mouse Serum | S. pyogenes GC 4563; GC4563, read-out: MINIMAL INHIBITORY CONCENTRATION MIC, Water | S. pneumoniae+ GC 4465; [2] | S. epidermidis GC 4935; GC4935, read-out: MINIMAL INHIBITORY CONCENTRATION MIC, Human Serum | S. epidermidis GC 4935; GC4935, read-out: MINIMAL INHIBITORY CONCENTRATION MIC, Mouse Serum | S. epidermidis GC 4935; GC4935, read-out: MINIMAL INHIBITORY CONCENTRATION MIC, Water | E. faecalis GC 4555; GC4555, read-out: MINIMAL INHIBITORY CONCENTRATION MIC, Human Serum | E. faecalis GC 4555; GC4555, read-out: MINIMAL INHIBITORY CONCENTRATION MIC, Mouse Serum | E. faecalis GC 4555; GC4555, read-out: MINIMAL INHIBITORY CONCENTRATION MIC, Water | E. faecalis GC 2265; GC2265, read-out: MINIMAL INHIBITORY CONCENTRATION MIC, Human Serum | E. faecalis GC 2265; GC2265, read-out: MINIMAL INHIBITORY CONCENTRATION MIC, Mouse Serum | E. faecalis GC 2265; GC2265, read-out: MINIMAL INHIBITORY CONCENTRATION MIC, Water | S. aureus GC 1131; GC1131, read-out: MINIMAL INHIBITORY CONCENTRATION MIC, Human Serum | S. aureus GC 1131; GC1131, read-out: MINIMAL INHIBITORY CONCENTRATION MIC, Mouse Serum | S. aureus GC 1131; GC1131, read-out: MINIMAL INHIBITORY CONCENTRATION MIC, Water
8 µg/mL: S. agalactiae GC 4564; GC4564, read-out: MINIMAL INHIBITORY CONCENTRATION MIC, Human Serum | S. agalactiae GC 4564; GC4564, read-out: MINIMAL INHIBITORY CONCENTRATION MIC, Mouse Serum | S. agalactiae GC 4564; GC4564, read-out: MINIMAL INHIBITORY CONCENTRATION MIC, Water | S. pneumoniae+ GC 4465; [1] | S. pneumoniae+ GC 4465; [3]

From patent publication US20070049564A1 (Wyeth, priority 2005, published 2007)
